In patent US6008188A, “Cytokine potentiator and pharmaceutical formulation for cytokine administration” (Kanebo Limited, priority 1994, dated 1999):
Read-outs that look alike come from different tables or passages of the source.

Tests used:
[1] = tested on: Normal human fibroblasts [Detroit-551 (ATCC CCL 110)]; assay: Response to βFGF: procollagenase production by normal human fibroblasts Detroit-551 (Test Examples 4-10); assay type: cell-based; settings: for activity at 3000 µM / activity at 1000 µM: Homo sapiens, Detroit 551, 96 h, read-out: Response to βFGF Increment; for Procollagenase Production: mean ± SD, n = 3
Procedure: (§1) In the following tests, the procollagenase production was quantified in terms of the collagenase activity as obtained through activation with trypsin.
(§2) It is known that βFGF promotes procollagenase production. In the following tests, therefore, the βFGF activity increment as attained by the compound added was calculated from the procollagenase production, relative to the control using purified water in place of the test compound.
(§3) Normal human fibroblasts [Detroit-551 (ATCC CCL 110) as prepared from the skin of a person] were suspended at a cell density of 1×10^5 cells/ml in the MEM medium, comprising 10% (V/V) FBS, 0.1% (W/V) (as final concentration) of enzymatic hydrolysate of lactalbumin (produced by Sigma Co.), 1% (V/V) non-essential amino acids and 1 mM sodium pyruvate (both produced by Dai-Nippon Pharmaceutical Co.). The suspended cells were seeded into each well of a 12-well plate in an amount of 0.8 ml/well (corresponding to 8×10^4 cells/well) and incubated in a saturated aqueous vapor with 5% CO2 at 37uC.
A cytokine activity enhancer (ethanolamine) as obtained in Example 3 mentioned below was diluted with an MEM medium containing 0.6% (V/V) FBS, 0.1% (W/V) (as final concentration) of enzymatic hydrolysate of lactalbumin, 1% (V/V) non-essential amino acids and 1 mM sodium pyruvate, to be 1 mM, and this was used as a solution to be added to the incubated cells.
(§4) After having been incubated for 24 hours, the culture medium was removed from the plate by suction, and the cells remained were washed twice with the MEM medium containing 0.6% (V/V) (as final concentration) of FBS. Then, the cells were fed with 0.8 ml of the solution prepared above, and were incubated for 4 days.
After the 4 days incubation, the culture medium was removed from the plate by suction, and the cells were fed with 0.8 ml of the MEM medium containing 3 ng/ml βFGF, 0.6% (V/V) FBS, 0.1% (W/V) (as final concentration) of enzymatic hydrolysate of lactalbumin, 1% (V/V) non-essential amino acids and 1 mM sodium pyruvate, and were incubated for 3 days to obtain a culture supernatant.
Next, in the same manner as in Test Example 1, procollagenase was recovered from the CM-Sepharose CL-6B (trade name), and the amount of procollagenase thus collected was measured.
A cytokine activity enhancer (N-methylethanolamine) as obtained in Example 4 to be mentioned hereinunder was tested for the βFGF activity increment, in the same manner as in Test Example 4.
as §3, with “collected” for “prepared”, “medium (hereinafter referred to as MEM2 medium),” for “medium,”, “1% (V/V)” for “0.1% (W/V)”, “of” for “of enzymatic hydrolysate of lactalbumin (produced by Sigma Co.), 1% (V/V)”, “The” for “The suspended”, “37° C.” for “37uC.”
A cytokine activity enhancer (Diisopropanolamine) as obtained in Example 5 mentioned below was diluted with the MEM2 medium containing 0.6% (V/V) FBS to be 3 mM, and this was used as a solution to be added to the incubated cells.
as §4, with “the MEM2” for “the MEM”, “prepared above” for “prepared above,”, “for 2” for “for 4”
After the 2 days incubation, the culture was removed by filtration under suction, and 0.8 ml of the solution was again added to the remaining cells, which were then incubated for 2 days. Thus, the cells were incubated for 4 days in total. […]

[2] = tested on: Normal human fibroblasts [CCD45SK (ATCC CRL 1506)]; assay: Response to βFGF: procollagenase production by normal human fibroblasts CCD45SK (Test Examples 1-3); assay type: cell-based; settings: Test Example 3, 1 mM, 10 ng/ml βFGF
Procedure: as §1, §2
Normal human fibroblasts [CCD45SK (ATCC CRL 1506) as prepared from the skin of a person] were suspended at a cell density of 1×10^5 cells/ml in the MEM medium, comprising 10% (V/V) FBS and 1% (V/V) non-essential amino acids (produced by Dai-Nippon Pharmaceutical Co.). The suspended cells were seeded into each well of a 12-well plate in an amount of 0.8 ml/well (corresponding to 8×10^4 cells/well) and incubated in a saturated aqueous vapor with 5% CO2 at 37° C. […]
as §4, with “with an” for “with the”, “0.6% (v/v)” for “0.6% (V/V)”, “prepared above added to the cells, which” for “prepared above, and”, “for 2” for “for 4”
After the 2 days incubation, the culture medium was removed from the plate by suction, and the cells were fed with 0.8 ml of the solution and were further incubated for 2 days. This operation was repeated once again. Thus, the cells were processed in the medium containing the cytokine activity enhancer for 6 days in total.
After the above-mentioned process, the culture medium was removed from the plate by suction, and the cells were fed with 0.8 ml of an MEM medium containing 3 ng/ml of βFGF (produced by Boehringer Manheim Co.) and 0.6% (V/V) FBS, and were incubated for 3 days to obtain a culture supernatant.
3.5 ml of 10 mM Tris-HCl buffer [adjusted at pH 7.8 at 4° C., containing 1 mM calcium chloride and 0.05% (W/V) Brij-35] was added to 500 μl of the thus-obtained culture supernatant, and applied to CM-Sepharose CL-6B (trade name, produced by Pharmacia Co., having a bed volume of 0.5 ml) as previously equilibrated with the same buffer.
Next, the inhibitor was removed through treatment with 0.5 ml of the same buffer as above but containing 125 mM sodium chloride (4 times in all, 2 ml of the buffer was used in total), and the procollagenase was recovered through treatment with 0.5 ml of the same buffer as above but containing 500 mM sodium chloride (4 times in all, 2 ml of the buffer was used in total). This was used as a test sample.
The test sample was suitably diluted with a buffer for measurement (mentioned above), 25 μl of the thus-diluted sample was mixed with 25 μl of the buffer, 20 μl of a trypsin solution (as prepared by adding trypsin, Type 12 (produced by Sigma Co.) to the buffer at a concentration of 1 mg/ml) was added thereto, and this was incubated at 35° C. for 5 minutes. Then, 30 μl of a soybean trypsin inhibitor solution (as prepared at a concentration of 3 mg/ml, using the buffer) was added to this to thereby inactivate the trypsin. The resulting solution is designated collagenase solution.
Using type I collagen as labeled with fluorescein isothiocyanate (hereinafter referred to as FITC) (this is an acetic acid solution of FITC-collagen having a concentration of 1 mg/ml; produced by Cosmo-Bio Co.), as a substrate solution, the collagenase activity (unit/ml) of the solution was measured according to the method of Nagai et al. (see Inflammations, Vol. 4, No. 2, p. 123, 1984). […] The procollagenase production (unit/ml of culture medium) was thus obtained and referred to as X1.

[3] = tested on: Normal human fibroblasts [CCD45SK (ATCC CRL 1506)]; assay: Response to TGF-β1: TIMP production by normal human fibroblasts (Test Examples 12-13); assay type: cell-based
Procedure: Normal human fibroblasts [CCD45SK (ATCC CRL 1506) as prepared from the skin of a person] were suspended at a cell density of 1×10^5 cells/ml in the MEM medium, comprising 10% (V/V) FBS and 1% (V/V) non-essential amino acids (produced by Dai-Nippon Pharmaceutical Co.). The suspended cells were seeded into each well of a 12-well plate in an amount of 0.8 ml/well (corresponding to 8×10^4 cells/well) and incubated in a saturated aqueous vapor with 5% CO2 at 37° C.

healthy panelists = tested on: healthy panelists
Procedure: Aqueous solutions of N-methyl-L-serine, ethanolamine and N-methylethanolamine that had been adjusted to have a pH 7 with hydrochloric acid were used as test samples. These test samples were applied to 19 healthy panelists.
One hour and 24 hours after the removal of the patch, the condition of the skin of each panelist was observed.

[4] = tested on: Japanese native, male house rabbits
Procedure: Aqueous solutions of N-Methyl-L-Serine, Ethanolamine and N-Methylethanolamine that had been adjusted to have a pH of 7 with hydrochloric acid were used as test samples.
Using Japanese native, male house rabbits (body weight: about 3 kg), the test samples were tested according to the Draize method (see Appraisal of the Safety of Chemicals in Foods, Drugs and Cosmetics, p. 46, 1959, edited and published by the Deitorial Committee, Association of Food and Drug Officials of U.S.A.).
24 hours after the last application, the tested area of each rabbit was checked to score the erythema, edema, scab and rhagades, if any, formed in the area.
The erythema score, the edema score, the scab score, and the rhagades score as referred to in Table 17 were summed up to obtain the cumulative stimulation score.
Next, from the cumulative stimulation scores, obtained were the degrees of stimulation with N-Methyl-L-Serine, Ethanolamine and N-Methylethanolamine,according to the criteria shown in Table 18 below.

[5] = tested on: Japanese native, male house rabbits; remark: listed apart in the source
Procedure: Aqueous solutions of N-methyl-L-serine, ethanolamine and N-methylethanolamine that had been adjusted to have a pH 7 with hydrochloric acid were used as test samples.
Using Japanese native, male house rabbits (body weight: about 3 kg), the test samples were tested according to the above-mentioned the Draize method.
Precisely, the back of each rabbit was shaven and rubbed to form a scratched site (scratched skin). An adhesive tape for patch test (1.2×1.6 cm; Ribbon Aid, registered trade mane, produced by River Tape Chemicals Co.) as wetted with 0.1 ml of water, or 0.1 ml of an aqueous 1% (W/V) solution of the test compound was stuck onto the scratched skin and the normal skin. […] In addition, 48 hours after the peeling of the tape, the condition of the skin was also observed.
The scores as referred to in Table 21 were obtained, and the primary stimulation score was calculated according to the following equation.
Primary Stimulation Score=[(A+B)/2]+[(C+D)/2]+[(E+F)/2]+[(G+H)/2]
Next, from the primary stimulation scores, obtained was the degree of stimulation with N-Methyl-L-Serine or Ethanolamine or N-Methylethanolamineaccording to the criteria shown in Table 22 below.

IFN = settings: cited from earlier work
[6] = Test Examples 6-10, 3 mM, 4 days, 3 ng/ml βFGF, MEM2 medium, control = 100
[7] = Test Examples 6-10, 3 mM, 4 days, 3 ng/ml βFGF, MEM2 medium
[8] = Test Examples 4-5, 1 mM, 4 days, 3 ng/ml βFGF

For `CC(N)CO` (racemic) [Example 6, D,L-2-Amino-1-Propanol], the activity at 3000 µM [1, 6] was 380% and the “Procollagenase Production” value [1, 7] was 33 ± 4.7 unit/ml.
With `OCCNCCO` [Example 2, diethanolamine] the activity at 1000 µM ([2]; Homo sapiens, Fibroblast, control = 100, read-out: Response to βFGF Increment) was 190% and the “Procollagenase Production” value ([2]; mean ± SD, n = 3) was 14 ± 1.3 unit/ml.
With `NCCO` [Example 3, ethanolamine] the activity at 1000 µM ([3]; Homo sapiens, Fibroblast, 144 h, read-out: Response to TGF-β1 Increment) was 160%, the “TIMP Production” value ([3]; Test Example 13, 1 mM, 4 days, supernatant 6 days after TGF-β1, mean ± SD, n = 3) was 250 ± 9.0 unit/ml and the panelists with erythema (healthy panelists; 0.05 ml of aqueous 1% (W/V) solution, 24 hours closed patch, 1 hour and 24 hours after removal, 19 panelists) was “only one panelists had minor erythema”. The “Cumulative Stimulation Score” value ([4]; 0.1 ml of aqueous 0.1% (W/V) solution, once a day for 4 days) was 0, the “cumulative stimulation to the skin (in words)” value ([4]; aqueous 0.1% (W/V) solution) was “low” and the activity at 1000 µM [1] was 180%. For the same compound, the “Procollagenase Production” value [1, 8] was 21 ± 1.3 unit/ml, the “Primary Stimulation Score” value ([5]; 0.1 ml of aqueous 1% (W/V) solution, patch 24 hours, normal and scratched skin) was 0 and the “stimulation to the skin (in words)” value ([5]; aqueous 1% (W/V) solution) was “low”.
For `CNCCO` [Example 4, N-methylethanolamine], the panelists with erythema (healthy panelists; in vivo) was “only one panelists had minor erythema”, the “cumulative stimulation to the skin (in words)” value ([4]; rabbit, in vivo) was “low” and the activity at 1000 µM ([1]; Test Examples 4-5, 1 mM, 4 days, 3 ng/ml βFGF, control = 100) was 180%. The “Procollagenase Production” value [1, 8] was 12 ± 1.7 unit/ml, the “Primary Stimulation Score” value ([5]; rabbit, in vivo) was 0.25 and the “stimulation to the skin (in words)” value ([5]; rabbit, in vivo) was “low”.
In the case of `CC(O)CNCC(C)O` (stereo not shown) [Example 5, Diisopropanolamine], the activity at 3000 µM [1, 6] is reported as 760% and the “Procollagenase Production” value [1, 7] is reported as 65 ± 13 unit/ml.
With `CCC(N)CO` (stereo not shown) [Example 7, 2-Amino-1-Butanol] the activity at 3000 µM [1, 6] was 190% and the “Procollagenase Production” value [1, 7] was 22 ± 2.4 unit/ml.
In the case of `NCC(O)CN` [Example 8, 1,3-Diamino-2-Propanol], the activity at 3000 µM [1, 6] is reported as 150% and the “Procollagenase Production” value [1, 7] is reported as 18 ± 0.95 unit/ml.
For `CCC(O)CN` (stereo not shown) [Example 9, 1-Amino-2-Butanol], the activity at 3000 µM [1, 6] was 290% and the “Procollagenase Production” value [1, 7] was 24 ± 2.3 unit/ml.
For `CC1(C)[C@@H](O[C@H]2O[C@H](C(=O)O)[C@@H](O)[C@H](O)[C@H]2O[C@@H]2O[C@H](C(=O)O)[C@@H](O)[C@H](O)[C@H]2O)CC[C@]2(C)[C@H]3C(=O)C=C4[C@@H]5C[C@@](C)(C(=O)O)CC[C@]5(C)CC[C@@]4(C)[C@]3(C)CC[C@@H]12` [Glychrrhizic acid, glycyrrhizic acid], the IFN-producing activity (IFN) is given as “has an IFN-producing activity”.
